{"source": "patent US11242349B2", "about": "“Ethynyl derivatives” (Hoffmann-La Roche Inc., priority 2016, dated 2022)", "key": {"[1]": {"details": "cited from earlier work"}, "[2]": {"details": "mice; preclinical model of anxiety; cited from earlier work"}, "[3]": {"details": "mice; preclinical model of anxiety; cited from earlier work", "remark": "listed apart in the source"}, "[4]": {"details": "mice treated with MPTP; cited from earlier work"}, "[5]": {"target": "recombinant human mGlu4 expressed in HEK293 cells (Homo sapiens (Human), UniProt Q14833)", "sequence (Q14833 33-912)": "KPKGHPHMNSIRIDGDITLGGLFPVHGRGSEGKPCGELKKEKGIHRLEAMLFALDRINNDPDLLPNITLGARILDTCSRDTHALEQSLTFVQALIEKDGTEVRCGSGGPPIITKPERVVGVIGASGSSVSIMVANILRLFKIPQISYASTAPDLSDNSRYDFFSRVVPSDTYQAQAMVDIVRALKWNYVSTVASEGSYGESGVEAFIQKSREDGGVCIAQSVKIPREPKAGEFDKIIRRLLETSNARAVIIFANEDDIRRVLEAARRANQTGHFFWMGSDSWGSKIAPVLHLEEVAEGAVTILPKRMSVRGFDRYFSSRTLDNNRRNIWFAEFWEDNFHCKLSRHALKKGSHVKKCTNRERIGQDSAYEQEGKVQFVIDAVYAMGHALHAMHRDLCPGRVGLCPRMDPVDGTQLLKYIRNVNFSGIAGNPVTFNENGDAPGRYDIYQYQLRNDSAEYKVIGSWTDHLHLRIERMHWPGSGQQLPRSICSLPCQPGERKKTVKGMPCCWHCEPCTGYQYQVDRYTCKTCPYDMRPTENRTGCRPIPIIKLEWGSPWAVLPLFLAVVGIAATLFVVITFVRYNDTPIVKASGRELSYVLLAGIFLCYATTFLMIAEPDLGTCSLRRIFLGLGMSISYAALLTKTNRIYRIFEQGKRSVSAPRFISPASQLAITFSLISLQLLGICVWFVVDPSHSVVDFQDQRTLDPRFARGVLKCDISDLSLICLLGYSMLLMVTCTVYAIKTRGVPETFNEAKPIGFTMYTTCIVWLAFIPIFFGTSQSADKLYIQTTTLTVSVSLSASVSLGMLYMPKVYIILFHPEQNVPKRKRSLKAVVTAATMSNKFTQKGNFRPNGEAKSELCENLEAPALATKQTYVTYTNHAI", "assay": "Ca2+ mobilization in vitro assay, mGlu4 PAM", "format": "cell-based", "details": "for EC50: HEK293 cells, human mGlu4, with EC20 of L-AP4; for Eff. (%): maximal response in % of maximal stimulatory effect of saturating L-AP4", "description": "Determination of EC50 values using a Ca2+ mobilization in vitro assay on recombinant human mGlu4 expressed in HEK293 cells:\nA monoclonal HEK-293 cell line stably transfected with a cDNA encoding for the human mGlu4 receptor was generated; for the work with mGlu4 Positive Allosteric Modulators (PAMs), a cell line with low receptor expression levels and low constitutive receptor activity was selected to allow the differentiation of agonistic versus PAM activity. Cells were cultured according to standard protocols (Freshney, 2000) in Dulbecco's Modified Eagle Medium with high glucose supplemented with 1 mM glutamine, 10% (vol/vol) heat-inactivated bovine calf serum, Penicillin/Streptomycin, 50 μg/ml hygromycin and 15 μg/ml blasticidin (all cell culture reagents and antibiotics from Invitrogen, Basel, Switzerland). About 24 hrs before an experiment, 5×10^4 cells/well were seeded in poly-D-lysine coated, black/clear-bottomed 96-well plates. The cells were loaded with 2.5 μM Fluo-4AM in loading buffer (1×HBSS, 20 mM HEPES) for 1 hr at 37° C. and washed five times with loading buffer. The cells were transferred into a Functional Drug Screening System 7000 (Hamamatsu, Paris, France), and 11 half logarithmic serial dilutions of test compound at 37° C. were added and the cells were incubated for 10-30 min. with on-line recording of fluorescence. […] Graphs were plotted with the % maximal stimulatory using XLfit, a curve fitting program that iteratively plots the data using Levenburg Marquardt algorithm. The single site competition analysis equation used was y=A+((B-A)/(1+((x/C)D))), where y is the % maximal stimulatory effect, A is the minimum y, B is the maximum y, C is the EC50, x is the log 10 of the concentration of the competing compound and D is the slope of the curve (the Hill Coefficient).\nFIG. 1: Illustration of the experimental outline for mGlu4 PAM Ca2+ mobilization screening assay and the determination of EC50 and % Emax values."}}, "note": "Where two headings read alike, the source gives them in different places.", "data": [{"smiles": "Cc1ccnc(Nc2nc(-c3cn[nH]c3)c(C)s2)n1", "note": "[ADX88178]", "values": [{"measurement": "profile in rat EPM test", "setting": "[1]; rat, after oral dosing", "result": "anxiolytic-like profile"}, {"measurement": "activity in EPM", "setting": "[1]; rats, preclinical model of anxiety", "result": "active"}, {"measurement": "activity in marble burying test", "setting": "[2]", "result": "active"}, {"measurement": "activity in EPM", "setting": "[3]", "result": "active"}]}, {"smiles": "O=C(Nc1ccccc1)C12CC1/C(=N\\O)c1ccccc1O2", "note": "(single isomer, unassigned; (-)) [(−)-PHCCC]", "values": [{"measurement": "nigrostriatal degeneration", "setting": "[4]", "result": "reduced nigrostriatal degeneration"}]}, {"smiles": "CCn1cc2c(n1)CCC[C@]21CC(=O)N(c2c(F)cc(C#Cc3ccccc3)cc2F)C(=O)N1C", "note": "[Example 1, (4S)-3′-[2,6-Difluoro-4-(2-phenylethynyl)phenyl]-2-ethyl-1′-methyl-spiro[6,7-dihydro-5H-indazole-4,6′-hexahydropyrimidine]-2′,4′-dione]", "values": [{"measurement": "EC50", "setting": "[5]", "result": 77, "unit": "nM"}, {"measurement": "Eff. (%)", "setting": "[5]", "result": 132, "unit": "%"}]}, {"smiles": "CCn1ncc2c1CCC[C@]21CC(=O)N(c2c(F)cc(C#Cc3ccccc3)cc2F)C(=O)N1C", "note": "[Example 2, (4S)-3′-[2,6-Difluoro-4-(2-phenylethynyl)phenyl]-1-ethyl-1′-methyl-spiro[6,7-dihydro-5H-indazole-4,6′-hexahydropyrimidine]-2′,4′-dione]", "values": [{"measurement": "EC50", "setting": "[5]", "result": 85, "unit": "nM"}, {"measurement": "Eff. (%)", "setting": "[5]", "result": 136, "unit": "%"}]}]}
